How the values were obtained:
[1] = test system: S. mutans (ATCC #25175); assay: Inhibition of glucose metabolism with Streptococcus mutans (GC-MS of remaining α- and β-glucose); type: cell-based; settings: for Glucose inhibition (%) from Example 5: versus Comparative Example 1 (no Amadori compound)
Method: In this Example, the ability of Amadori compound from the reaction of glucose with glycine to inhibit glucose metabolism with Streptococcus mutans was investigated. A stock glucose solution of 0.4 wt % glucose dissolved in distilled water (0.4 g/100 mL) was prepared. A stock Amadori compound from the reaction of glucose with glycine solution of 4.0 wt % Amadori compound from the reaction of glucose with glycine dissolved in distilled water (0.4 g/10 mL) was prepared. A bacterial solution was prepared as follows: S. mutans (ATCC #25175) was cultured overnight in TSB medium and then the resultant bacterial pellet was re-suspended bacterial to OD610=0.8 (a concentration with an optical reading of 0.8 at 610 nm for a 1-cm light path) with phosphate buffered saline (pH=7.4) (PBS). In accordance with Example 5, a test sample comprising 1 mL of the bacterial solution, 0.5 mL of the Amadori compound from the reaction of glucose with glycine solution and 0.5 mL of the glucose solution was subjected to incubation at a temperature of 37° C., representing normal human body temperature. Then, 200 μL of the test sample was transferred into individual HPLC vials after 10 minutes of the incubation period, after 30 minutes of the incubation period, and after 60 minutes of the incubation period. The HPLC vial cap was used to seal the vial. Immediately the HPLC vials were placed in a 100° C. water bath for about 5 minutes to denaturize the enzymes. The resultant products were subjected to gas chromatography-mass spectrometry (GC-MS) testing and analysis to determine the amounts of the α- and β-glucose forms present. In Table 1, the number of counts during MS detection for each respective α- and β-glucose form detected in the respective sample at the respective incubation time is indicated, the number of counts representing the amount of the respective glucose form present. In Comparative Example 1, the testing of Example 5 was repeated but on a control sample comprising 1 mL of the bacterial solution, 0.5 mL of the glucose solution and 0.5 mL of deionized water. In other words, Comparative Example 1 had no Amadori compound from the reaction of glucose with glycine. The control sample was also subjected to incubation at a temperature of 37° C. for the same respective time periods.

[2] = test system: S. mutans (ATCC #25175); assay: Inhibition of biofilm formation, crystal violet staining in saliva-coated 96-well plate; type: cell-based, Streptococcus mutans; settings: for Inhibition against biofilm formation (in words): 1 wt % glucose and 2 wt % Amadori compound, versus no Amadori compound; for Average absorbance (590 nm), amount of biofilm: test sample 1 wt % glucose and 2 wt % Amadori compound, co-incubated overnight at 37° C., lower absorbance = less biofilm
Method: In this Example, the ability of Amadori compound from the reaction of glucose with glycine to inhibit biofilm formation was investigated. A sample of cultured S. mutans (ATCC #25175) bacterium was grown in TSB medium overnight and subsequently centrifuged to form a pellet, and then the centrifuged S. mutans was re-suspended with TSB (trypticase soy broth) containing 1% glucose and adjusted to OD610=0.5 (a concentration with an optical reading of 0.5 at 610 nm for a 1-cm light path). A 50 microliter sample of the re-suspended S. mutans (OD610=0.5) was co-incubated with a 50 microliter test sample. The test sample contained 1 wt % of glucose and 2 wt % of Amadori compound from the reaction of glucose with glycine. The 100 μL total of the re-suspended S. mutans (OD610=0.5) and test sample, representing a clarified saliva, was co-incubated in a 96-well plate which was pre-coated with the clarified saliva and then left overnight at 37° C. After the co-incubation period, the supernatant liquid was aspirated from the well plate. A 50 microliter amount of crystal violet was added to each well and permitted to stain any biofilm for a period of 10 minutes. The well plate was washed with 100 μL of PBS. The amount of biofilm was determined by irradiating the well plate with electromagnetic radiation having a wavelength of 590 nm and measuring the absorbance. The lower the absorbance reading, the less the amount of biofilm detected.

[3] = 10 minutes incubation at 37° C., same sample
[4] = 30 minutes incubation at 37° C., same sample
[5] = 60 minutes incubation at 37° C., same sample

Row | SMILES | α-glucose, number of counts during MS detection ([1]; 10 minutes incubation at 37° C., 1 mL bacterial solution + 0.5 mL 4.0 wt % compound solution + 0.5 mL 0.4 wt % glucose solution) | Total glucose (α + β), number of counts during MS detection [1, 3] | β-glucose, number of counts during MS detection [1, 3] | Glucose inhibition (%) from Example 5 ([1]; 10 minutes incubation) | Total glucose (α + β), number of counts during MS detection [1, 4] | α-glucose, number of counts during MS detection [1, 4] | β-glucose, number of counts during MS detection [1, 4] | Glucose inhibition (%) from Example 5 ([1]; 30 minutes incubation) | Total glucose (α + β), number of counts during MS detection [1, 5] | α-glucose, number of counts during MS detection [1, 5] | β-glucose, number of counts during MS detection [1, 5] | Glucose inhibition (%) from Example 5 ([1]; 60 minutes incubation) | Inhibition of glucose metabolization / degradation (in words) ([1]; co-incubated with S. mutans and glucose, versus no Amadori compound) | Inhibition of glucose metabolism ([1]; within the incubation time period of from 10 to 60 minutes) | Inhibition against biofilm formation (in words) ([2]; listed as Amadori compound from the reaction of glucose with glycine) | Average absorbance (590 nm), amount of biofilm [2] | Inhibition against biofilm formation (in words) ([2]; listed as Amadori compound from the reaction of glucose with arginine) | Inhibition against biofilm formation (in words) ([2]; listed as Amadori compound from the reaction of glucose with glutamic acid)
1 | O=C(O)CNCC(=O)[C@@H](O)[C@H](O)[C@H](O)CO [Example 1, N-(1-deoxy-fructos-1-yl)glycine] | 1753564 counts | 5564912 counts | 3811348 counts | 56.4% | 6220880 counts | 1912144 counts | 4308736 counts | 59.9% | 5403991 counts | 1724203 counts | 3679788 counts | 70.1% | inhibited glucose metabolization | at least 56% | very strong inhibition | 0.2885 |  | 
2 | N=C(N)NCCC[C@H](NCC(=O)[C@@H](O)[C@H](O)[C@H](O)CO)C(=O)O [Example 2, N-(1-deoxy-fructos-1-yl) arginine] |  |  |  |  |  |  |  |  |  |  |  |  |  |  |  | 1.2808 | relatively weak inhibition | 
3 | O=C(O)CC[C@H](NCC(=O)[C@@H](O)[C@H](O)[C@H](O)CO)C(=O)O [Example 4, N-(1-deoxy-fructos-1-yl)glutamic acid] |  |  |  |  |  |  |  |  |  |  |  |  |  |  |  | 0.5476 |  | very strong inhibition

Source: US9993414B2, “Oral care composition comprising an Amadori compound” (Colgate-Palmolive Company, priority 2012, dated 2018)
